Structures are written as SMILES.

The test system of series [1] is Mus musculus. The series can be described thus: In vivo activity of compound was measured against P388 lymphocytic leukemia at the dose of 50 mg/kg; toxic. Type of series: functional, organism-based. Also on record: dose 50 mg/kg.
In series [2] the test system is Mus musculus. The series can be described thus: In vivo activity of compound was measured against P388 lymphocytic leukemia at the dose of 100 mg/kg; toxic. In kind it is functional, organism-based. Also on record: dose 100 mg/kg.
Series [3] concerns Mus musculus. The series can be described thus: In vivo activity of compound was measured against P388 lymphocytic leukemia at the dose of 25 mg/kg. Type of series: functional.
In series [4] the test system is Mus musculus. The series can be described thus: In vivo activity of compound was measured against P388 lymphocytic leukemia at the dose of 6.25 mg/kg. In kind it is functional.
Series [5] has as its system Mus musculus. The series can be described thus: In vivo activity of compound was measured against P388 lymphocytic leukemia at the dose of 200 mg/kg; toxic. In kind it is functional, organism-based. Also on record: dose 200 mg/kg.
Series [6] relates to Mus musculus. The series can be described thus: In vivo activity of compound was measured against P388 lymphocytic leukemia at the dose of 12.5 mg/kg. Type of series: functional.
Series [7] relates to Mus musculus. The series can be described thus: In vivo activity of compound was measured against P388 lymphocytic leukemia at the dose of 3.13 mg/kg. Type of series: functional.
The test system of series [8] is Mus musculus. The series can be described thus: In vivo activity of compound was measured against P388 lymphocytic leukemia at the dose of 100 mg/kg. In kind it is functional.
Series [9] relates to Mus musculus. The series can be described thus: In vivo activity of compound was measured against P388 lymphocytic leukemia at the dose of 50 mg/kg. In kind it is functional.
Series [10] has as its system Mus musculus. The series can be described thus: In vivo activity of compound was measured against P388 lymphocytic leukemia at the dose of 1.56 mg/kg. Type of series: functional.
In series [11] the test system is Mus musculus. The series can be described thus: In vivo activity of compound was measured against P388 lymphocytic leukemia at the dose of 0.78 mg/kg. In kind it is functional.
The test system of series [12] is Mus musculus. The series can be described thus: In vivo activity of compound was measured against P388 lymphocytic leukemia at the dose of 25 mg/kg; toxic. In kind it is functional, organism-based. The arrangement: dose 25 mg/kg.
Series [13] relates to Mus musculus. The series can be described thus: In vivo activity of compound was measured against P388 lymphocytic leukemia at the dose of 0.78 mg/kg; toxic. Type of series: ADME, organism-based. Also on record: dose 0.78 mg/kg.
For series [14], the system named is Mus musculus. The series can be described thus: In vivo activity of compound was measured against P388 lymphocytic leukemia at the dose of 100 mg/kg. Type of series: functional.
The test system of series [15] is Mus musculus. The series can be described thus: In vivo activity of compound was measured against P388 lymphocytic leukemia at the dose of 50 mg/kg. Type of series: functional.
The test system of series [16] is Mus musculus. The series can be described thus: In vivo activity of compound was measured against P388 lymphocytic leukemia at the dose of 12.5 mg/kg. Type of series: functional.
Series [17] deals with Mus musculus. The series can be described thus: In vivo activity of compound was measured against P388 lymphocytic leukemia at the dose of 6.25 mg/kg. In kind it is functional.
For series [18], the system named is Mus musculus. The series can be described thus: In vivo activity of compound was measured against P388 lymphocytic leukemia at the dose of 25 mg/kg. In kind it is functional.
Series [19] concerns Mus musculus. The series can be described thus: In vivo activity of compound was measured against P388 lymphocytic leukemia at the dose of 0.76 mg/kg. Type of series: functional.

For orientation: T/C means the ratio of treated to control. For `CNC(=O)OCc1c(COC(=O)NC)c(-c2c(F)cccc2F)n2c1CCC2`, the T/C result with Mus musculus [1] is “Toxic”; in the series with Mus musculus [2] it was “Toxic”; in the series with Mus musculus [3] it was 88%; in the series with Mus musculus [4] it was 166%; in the series with Mus musculus [5], “Toxic”; in the series on Mus musculus [6] it was 148%. Further, the T/C in the series on Mus musculus [7] was found to be 148%.

As to `CC(C)NC(=O)OCc1c(COC(=O)NC(C)C)c(-c2ccc(Cl)c(Cl)c2)n2c1CCC2`, the T/C in the series with Mus musculus [8] is 113%; with Mus musculus [3], 226%; in the series with Mus musculus [4], 149%; in the series on Mus musculus [5], “Toxic”; in the series on Mus musculus [9] it was 160%; in the series on Mus musculus [6], 177%. For the same compound, the T/C is given as 141% in the series on Mus musculus [7] and 122% in the series on Mus musculus [10].

Consider `CNC(=O)OCc1c(COC(=O)NC)c(-c2ccc(F)cc2)n2c1CCC2`, for which the T/C entry with Mus musculus [1] was “Toxic”; in the series with Mus musculus [2] it was “Toxic”; with Mus musculus [4], 137%; in the series on Mus musculus [5] it was “Toxic”; in the series with Mus musculus [6] it was 128%; in the series on Mus musculus [11] it was 146%. Further, the results for the T/C result with Mus musculus [12], in the series with Mus musculus [7] and in the series on Mus musculus [10] were “Toxic”, 141% and 122%, respectively.

As for `CC(C)NC(=O)OCc1c(COC(=O)NC(C)C)c(-c2ccc(F)c(F)c2)n2c1CCC2`, the T/C entry was “Toxic” in the series on Mus musculus [13]; 70% with Mus musculus [14]; 92% in the series on Mus musculus [15]; 123% with Mus musculus [3]; 160% with Mus musculus [4]; “Toxic” in the series on Mus musculus [5]. In addition, the T/C with Mus musculus [6] was 178%; in the series with Mus musculus [7], 151%; with Mus musculus [10], 126%.

On to `CNC(=O)OCc1c(COC(=O)NC)c(-c2cccc(F)c2F)n2c1CCC2`, for which the T/C entry is “Toxic” in the series on Mus musculus [1]; “Toxic” in the series on Mus musculus [2]; 156% in the series with Mus musculus [3]; 131% in the series with Mus musculus [4]; “Toxic” in the series on Mus musculus [5]; 149% with Mus musculus [6]. In the series with Mus musculus [7], this compound came in with a T/C of 134%.

Regarding `CNC(=O)OCc1c(COC(=O)NC)c(-c2cc(F)ccc2F)n2c1CCC2`, the T/C result with Mus musculus [2] was “Toxic”; with Mus musculus [16] it was 151%; in the series on Mus musculus [17], 147%; with Mus musculus [5] it was “Toxic”; with Mus musculus [9], 73%; in the series on Mus musculus [18], 156%.

As for `CC(C)NC(=O)OCc1c(COC(=O)NC(C)C)c(-c2ccc(F)cc2F)n2c1CCC2`, the T/C result is “Toxic” in the series with Mus musculus [1]; “Toxic” in the series with Mus musculus [2]; 99% in the series on Mus musculus [3]; 162% in the series with Mus musculus [4]; “Toxic” with Mus musculus [5]; 180% in the series with Mus musculus [6]. Further, the values for the T/C in the series with Mus musculus [19], in the series with Mus musculus [7] and in the series with Mus musculus [10] were 135%, 168% and 142%, respectively.

(Values after ChEMBL document CHEMBL1122184, “Synthesis and antileukemic activity of fluorinated analogues of 2,3-dihydro-5-phenyl-6,7-bis(hydroxymethyl)-1H-pyrrolizine biscarbamate” (J Med Chem, 1982).)
